In patent publication US9512176B2, “Age inhibitors” (Centre National de la Recherche Scientifique, priority 2005, dated 2016):
Entries after “also recorded” stand apart in the source; their conditions may differ. Non-standard residues stand in square brackets, D forms with d. Residues, ends and D or L forms follow the SMILES beside them. ξ: configuration not given here. Ile(3ξ) = CCC(C)[C@H](N)C(=O)O; dDap = NC[C@@H](N)C(=O)O; Dap = NC[C@H](N)C(=O)O

Tests used:
EA.hy 926 cell line = assay: Growth of EA.hy 926 endothelial cells with MG scavengers and/or methylglyoxal (MTT); format: cell-based, human; conditions: for viability at 1000 µM: Homo sapiens, EA.hy 926, read-out: Cells + MG scavengers + Methylglyoxal (B); for Difference (B) − (A): Table 2, cells with scavenger + MG minus cells with scavenger alone; for Cells + MG scavengers (A): scavenger 1 mM, no methylglyoxal, number of cells relative to untreated control cells; for cell toxicity: text b496, compound alone; for difference between number of cells growing with compound and with MG and compound: values in brackets; for effect against suppression of cell growth by MG: scavenger + methylglyoxal
Protocol: The cells used for the test are from the EA.hy 926 cell line, which are endothelial cells obtained by the hybridization of human umbilical vein endothelial cells (HUVECs) with lung cancer cells (A549). The EA.hy 926 endothelial cells are incubated in Dulbecco's modified Eagle's Medium (DMEM) enriched with 10% fetal calf serum. The cells are incubated in 12-well plates. Each well initially contains 100,000 cells. Cell growth is achieved by incubating the cells in 2 ml of culture medium after adding or not adding the various potential inhibitors (1 mM) and/or methylglyoxal (600 μM) for 48 hours at 37° C. in a moist atmosphere with 5% CO2.
The number of cells is evaluated in the following way:
The cells are stained using the (4,5-dimethylthiazol-2-yl)-2,5-diphenyltetrazolium bromide (MTT) assay. MTT penetrates in the cell where it is converted into formazan. The quantity of formazan formed is proportional to the number of living cells.
The results are expressed as a relative percentage of the number of cells after treatment compared to the number of control cells without treatment [100*OD (treated cells)/OD (control cells)]. Detection is carried out by UV/visible spectrophotometry at 570 nm.
Principle: MTT (yellow) penetrates the cell and is converted into an insoluble blue compound, formazan, by cleavage of its tetrazolium rings by the mitochondrial dehydrogenase enzymes of living cells. Formazan is solubilized by isopropanol. The number of cells is proportional to the quantity of formazan formed and its absorbance.

ribonuclease A [1] = assay: Enzymatic activity of ribonuclease A after treatment with methylglyoxal and inhibitors (methylene blue RNA staining); format: biochemical; conditions: ribonuclease A treated with methylglyoxal (MG) + inhibitor in equimolar quantity, 37° C.; control RNase 100, RNase + methylglyoxal 10.11%
Protocol: (§1) Ribonuclease A and lysozyme (10 mg/ml) are incubated in the presence of methylglyoxal (10 mM) or in the presence of methylglyoxal and one of the inhibitors according to the present invention in an equimolar quantity at 37° C. After 48 hours of incubation, the proteins are analyzed by polyacrylamide gel electrophoresis (8%-16% SDS PAGE gel).
The enzymatic activity of ribonuclease A after treatment with methylglyoxal and the various inhibitors according to the present invention is measured using the methylene blue RNA staining technique of Greiner-Stöffele et al. (Anal. Biochem. (1996) 240, 24).

ribonuclease A [2] = assay: SDS PAGE electrophoresis of ribonuclease A incubated with methylglyoxal and inhibitor; format: biochemical; conditions: ribonuclease A 10 mg/ml, methylglyoxal 10 mM, inhibitor equimolar, 37° C., 48 hours
Protocol: as §1
The AGE inhibitors according to the present invention, namely L-DAPA-L-Leu (example 1) and L-DAPA-L-Ile (example 18), or AG (10 mM) are incubated with MG and ribonuclease A for […] at 37° C.

lysozyme = assay: SDS PAGE electrophoresis of lysozyme incubated with methylglyoxal and inhibitor; format: biochemical; conditions: lysozyme 10 mg/ml, methylglyoxal 10 mM, inhibitor equimolar, 37° C., 48 hours
Protocol: as §1

RNase A = RNase A modifications induced by methylglyoxal (HPLC); format: biochemical; conditions: RNase A 0.08 mM, methylglyoxal 32 mM, compound 38 mM, 21 hours at 37° C.
Protocol: FIGS. 11 to 13 present the results obtained by HPLC for three compounds according to the present invention, L-DAPA-L-Ile (example 18), L-DAPA-L-Val (example 23) and L-DAPA-L-Leu (example 1), on RNase A modifications induced by methylglyoxal. HPLC conditions are as follows: C-18, Symmetry 300 (4.6×250 mm) column, injection volume 100 μl of reaction mixture diluted to 1/10; flow 1 ml/min; temperature 40° C.; solvent A: H2O+0.1% TFA; solvent B: 60/40 CH3CN/H2O+0.1% TFA; linear gradient of 20% B to 80% B in 20 minutes; detection: UV at 215 nm: PDA (chromatograms extracted at 215 nm).

glyoxalase I = assay: Glyoxalase I treated with methylglyoxal: non-denaturing electrophoresis and enzymatic activity; format: biochemical
Protocol: MG reacts with a protein's lysine and arginine residues, thus altering the charges on the modified polypeptide. […] The exposure of glyoxalase I to MG (10 mM) for 24 hours increases the mobility of the protein toward the positive electrode, a change that is consistent with the loss of positive charges from the ε-amino and guanidino groups and the gain of negative charges.
The incubation of glyoxalase I, a key protein in the α-oxoaldehyde detoxification system, in the presence of methylglyoxal, modifies the protein. This modification causes a change in charge and a 50% decrease in enzymatic activity compared to the control.

[3] = scavenger 1 mM + methylglyoxal 600 μM, 48 hours, relative to untreated control cells, MG alone 24, mean of 3 experiments
[4] = 48 hours, mean of 3 experiments

| SMILES | viability at 1000 µM (EA.hy 926 cell line; [3]) [%] | Difference (B) − (A) (EA.hy 926 cell line) | Cells + MG scavengers (A) (EA.hy 926 cell line; [4]) [%] | cell toxicity (EA.hy 926 cell line) [%] | difference between number of cells growing with compound and with MG and compound (EA.hy 926 cell line) | Enzymatic activity (%) (ribonuclease A [1]) | protection from structural modifications (dimer form) caused by methylglyoxal (ribonuclease A [2]) | protection from structural modifications (dimer form) caused by methylglyoxal (lysozyme) | effect against suppression of cell growth by MG (EA.hy 926 cell line) | RNase A modifications induced by methylglyoxal (RNase A) | gain of negative charge of glyoxalase I exposed to MG (glyoxalase I; MG 10 mM, 24 hours, non-denaturing electrophoresis) | inhibition of glyoxalase I enzymatic activity and structural modification by methylglyoxal (glyoxalase I; MG alone: 50% decrease in enzymatic activity) | cell survival when incubated with MG (EA.hy 926 cell line) [%] | Cells + MG scavengers + Methylglyoxal (B) (EA.hy 926 cell line; [3]) [%] | toxicity with respect to EA cells (EA.hy 926 cell line; compound alone, 1 mM) |
| --- | --- | --- | --- | --- | --- | --- | --- | --- | --- | --- | --- | --- | --- | --- | --- |
| NC[C@H](N)C(=O)NCC(=O)O [example 17, L-DAPA-Gly.2HCl] (H-[Dap]-Gly-OH) | 50 | −4 | 54 | 43 | +3 | 85.61 | provides protection | provides protection | – | – | – | – | – | – | – |
| NCCC(=O)N[C@@H](Cc1cnc[nH]1)C(=O)O [Carnosine, β-alanyl-L-histidine, reference compound] | 50 | −49 | 99 | – | – | – | – | – | less effective | – | – | – | – | – | – |
| CC(C)[C@H](NC(=O)[C@@H](N)[C@H](N)C(=O)N[C@H](C(=O)O)C(C)C)C(=O)O [example 29, (2S,3S)-DASA-1-L-Val-4-L-Val.2HCl] | 70 | −15 | 85 | – | −15 | 75.09 | provides protection | provides protection | – | – | – | – | – | – | – |
| CC(C)C[C@H](NC(=S)[C@@H](N)CN)C(=O)O [example 16, L-DAPA-L-(S)-Leu.2HCl] | 74 | +3 | 71 | – | – | 75.69 | – | – | – | – | – | – | – | – | – |
| CCC(C)[C@H](NC(=O)[C@@H](N)CN)C(=O)O (stereo partly drawn) [example 18, L-DAPA-L-Ile.2HCl] (H-[Dap]-[Ile(3ξ)]-OH) | 79 | −7 | 86 | – | −9 | 90.77 | provides protection | provides protection | same trend | prevent the modifications to RNase A | inhibits the gain of negative charge | prevents the inhibition exerted by methylglyoxal and protects against structural modifications | 79 | – | – |
| CC(C)C[C@H](NC(=O)[C@@H](N)[C@H](C)N)C(=O)O [example 12, (2S,3S)-DABA-L-Leu.2HCl] | 73 | −4 | 77 | – | −4 | 80.97 | provides protection | provides protection | – | – | – | – | – | – | – |
| N[C@H](C(=O)NCC(=O)O)[C@@H](N)C(=O)NCC(=O)O [example 28, (2S,3R)-DASA-1-Gly-4-Gly.2HCl] | 54 | −7 | 61 | – | – | – | – | – | – | – | – | – | – | – | – |
| C[C@@H](NC(=O)[C@H](N)CN)C(=O)O [example 8, D-DAPA-D-Ala.2HCl] (H-[dDap]-[dA]-OH) | 71 | −6 | 77 | 39 | +1 | 87.37 | provides protection | provides protection | – | – | – | – | – | – | – |
| NCCCC[C@H](N)C(=O)O [L-Lys, reference compound] | – | −38 | 81 | – | – | – | – | – | – | – | – | – | – | 43 | – |
| CN(C)C(=N)N=C(N)N [Metformin, reference compound] | 45 | −46 | 91 | – | – | – | – | – | less effective; also recorded: weak scavenger | – | – | – | – | – | extremely low toxicity |
| CC(C)C[C@H](NC(=O)[C@@H](N)CN)C(=O)O [example 3, L-DAPA-L-Leu.2TFA] (H-[Dap]-Leu-OH) | – | – | – | – | −18 | – | – | – | – | – | – | – | – | – | – |
| NC[C@H](N)C(=O)N[C@@H](Cc1ccccc1)C(=O)O [example 21, L-DAPA-L-Phe.2HCl] (H-[Dap]-Phe-OH) | 71 | −6 | 77 | – | −6 | 70.20 | – | – | – | – | – | – | – | – | – |
